Results published in US20230143751A1, “Aromatic Compound And Use Thereof In Preparing Antineoplastic Drugs” (Shanghai Zheye Biotechnology Co. Ltd., priority 2020, published 2023).
Like-named read-outs stand apart in the source and are kept apart here.

Experiments:
NCI-H358 cells = assay: Cell proliferation activity of NCI-H358 by CellTiter-Glo reagent; assay type: cell-based
Experimental: NCI-H358 cells in exponential growth phase were digested with trypsin-EDTA, plated in a 96-well plate with 2000-3000 cells per well, and incubated overnight at 37° C. with 5% CO2. […] After the incubation, CellTiter-Glo test reagent with an equal volume was added into each well and the obtained 96-well plate was incubated after shaking. The chemiluminescence values were determined by microplate reader, and the IC50 values of the test compounds inhibiting the proliferation of NCI-H358 cells were fitted and calculated by GraphPad Prism software.
The test method of inhibitory activity was the same as that in Test 3 in “Biological Tests” part.

[1] = Preliminary safety test, 5-day escalating oral dosing in Balb/c mice; assay type: in vivo
Experimental: Test samples: Compound 3-2, Compound 3-6, Compound 3-12M, Compound 3-20, and Compound 4-8.
Animal species and number: Balb/c; 6 animals per group (half male and half female).
Administration mode: oral administration by gavage.
Animal grouping and administration dose: vehicle blank group, Compound 3-2 group (200 mg/kg, 400 mg/kg, 800 mg/kg), Compound 3-6 group (200 mg/kg, 400 mg/kg, 800 mg/kg), Compound 3-12M group (200 mg/kg, 400 mg/kg, 800 mg/kg), Compound 3-20 group (200 mg/kg, 400 mg/kg, 800 mg/kg), Compound 4-8 group (200 mg/kg, 400 mg/kg, 800 mg/kg).
Administration frequency: once a day for 5 days.
General clinical observations were performed 2 times a day (once in the morning and once in the afternoon) during the test period. Death, morbidity, respiration, secretions, feces, and diet, drinking situation and so on were observed, and the changes in body weight of the mice during the administration period were recorded. The animals in each group were euthanized after the administration, and all animals were dissected and subjected to gross observation.

[2] = tested on: MIA PaCa-2-derived xenograft tumor; assay: Pharmacodynamics test of MIA PaCa-2-derived xenograft tumor model in nude mice (test 6); assay type: in vivo
Experimental: Animal species and number: Balb/c Nude; 6 animals per group.
Test samples: Compound 3-2, Compound 3-6, Compound 3-20, Compound 3-12M.
Test groups: blank solvent control group; Compound 3-2 (10 mg/kg, QD×15 days), Compound 3-6 (10 mg/kg, QD×15 days), Compound 3-20 (10 mg/kg, QD×15 days), Compound 3-12M (10 mg/kg, QD×15 days).
(§1) Animal model establishment: MIA paca-2 tumor cells in logarithmic growth phase were cultured in vitro and collected, and inoculated subcutaneously into the right back of nude mice at a quantity of 5×10^6 cells/each. When the tumor volume reached 150-300 mm^3, the tumor-bearing nude mice were randomly grouped. Subsequently, the animals in each group were administered, and the day of the first administration was defined as day 1 of the test.
(§2) Administration route and frequency: oral administration by gavage; once a day.
(§3) General state observation: observation time and frequency: once a day; observation indexes or contents: including but not limited to administration location, appearance and signs, general behavioral activities, mental status, death and other abnormal performance of the animals. The animals were euthanized at the end of the test.
Tumor volume calculation: V=½×long diameter×short diameter^2 (mm^3). Tumor growth inhibition rate TGI (%) is used to evaluate the tumor inhibition efficacy of the compounds. TGI (%)=[1−(mean tumor volume in treatment group at the end of administration−mean tumor volume in treatment group at the beginning of administration)/(mean tumor volume in control group at the end of administration−mean tumor volume in control group at the beginning of administration)]×100%.

KRAS G12C = KRAS G12C (Homo sapiens, UniProt P01116, G12C); assay: Effect on KRAS(G12C) enzyme activity (KRAS G12C/c-Raf binding, Eu/d2 energy transfer); assay type: biochemical
Experimental: Compound stock solution was taken, and the test compound was subjected to gradient elution in DMSO. The above diluted compound was added into a quantitative volume of enzyme reaction buffer and subjected to oscillation on a microplate oscillator for 20 min.
4 μL of enzyme was transferred to a 384-well reaction plate. 1 μL of the test compound was added into the 384-well reaction plate. The plate was sealed with sealing film, and the reaction plate with the compound was centrifuged at 1000 rpm for 1 min and incubated for 60 min. 5 μL of a mixture of substrate and antibody was transferred to the 384-well reaction plate. The plate was sealed with sealing film, then centrifuged at 1000 rpm for 1 min and incubated for 120 min at room temperature.
Ratiopositive control: average value of the ratios of 10 positive control wells; Rationegative control: average value of the ratios of 10 negative control wells.

[3] = tested on: NCI-H358-derived xenograft tumor; assay: Pharmacodynamics study of H358-derived xenograft tumor model (test 9); assay type: in vivo, nude mice; conditions: 3-12M 20 and 100 mg/kg, ARS1620 100 mg/kg, i.g., QD×28 days
Experimental: Animal species and number: Balb/c Nude; 10 animals per group.
Test samples: Compound ARS1620 (the representative inhibitor targeting KRAS G12C tumor
target, acquired by purchase) and Compound 3-12M.
Test groups: blank solvent control group;
Compound ARS1620 (100 mg/kg, i.g., QD×28 days);
Compound 3-12M (20 mg/kg, i.g., QD×28 days);
Compound 3-12M (100 mg/kg, i.g., QD×28 days).
as §1, with “NCI-H358” for “Animal model establishment: MIA paca-2”, “150˜300” for “150-300”
as §2, §3
Tumor volume calculation: V=½×long diameter×short diameter^2 (mm^3).

[4] = target: T1, human-derived MDR1 (MDR1 coding P-gp) transporter protein (Homo sapiens, UniProt P08183); assay: Transport effect of transporter MDR1 (vesicle uptake, P-gp substrate assessment); assay type: in vitro ADME; conditions: vesicles expressing human-derived MDR1, 37° C.
T1 construct: expressed in transfected cells; host or cells: membrane vesicles expressing human MDR1
Experimental: For this test, fluorescein and N-methylquinidine were used as the probe substrates in positive control group. ATP-containing test sample or positive control samples were prepared and pre-incubated with MDR1 vesicles at 37° C. After the pre-incubation, the two kinds of samples were mixed and co-incubated at 37° C. The samples were then transferred to a 96-well filter plate, and washed by suction filtration. The vesicles on the filter plate were lysed by using 80% of methanol, and then centrifuged to collect the filtrate. The filtrate was added with pre-cooled methanol containing internal standard. After the centrifugation, the obtained supernatant was taken and the test sample or positive control samples were detected.

T1 sequence (P08183 whole entry): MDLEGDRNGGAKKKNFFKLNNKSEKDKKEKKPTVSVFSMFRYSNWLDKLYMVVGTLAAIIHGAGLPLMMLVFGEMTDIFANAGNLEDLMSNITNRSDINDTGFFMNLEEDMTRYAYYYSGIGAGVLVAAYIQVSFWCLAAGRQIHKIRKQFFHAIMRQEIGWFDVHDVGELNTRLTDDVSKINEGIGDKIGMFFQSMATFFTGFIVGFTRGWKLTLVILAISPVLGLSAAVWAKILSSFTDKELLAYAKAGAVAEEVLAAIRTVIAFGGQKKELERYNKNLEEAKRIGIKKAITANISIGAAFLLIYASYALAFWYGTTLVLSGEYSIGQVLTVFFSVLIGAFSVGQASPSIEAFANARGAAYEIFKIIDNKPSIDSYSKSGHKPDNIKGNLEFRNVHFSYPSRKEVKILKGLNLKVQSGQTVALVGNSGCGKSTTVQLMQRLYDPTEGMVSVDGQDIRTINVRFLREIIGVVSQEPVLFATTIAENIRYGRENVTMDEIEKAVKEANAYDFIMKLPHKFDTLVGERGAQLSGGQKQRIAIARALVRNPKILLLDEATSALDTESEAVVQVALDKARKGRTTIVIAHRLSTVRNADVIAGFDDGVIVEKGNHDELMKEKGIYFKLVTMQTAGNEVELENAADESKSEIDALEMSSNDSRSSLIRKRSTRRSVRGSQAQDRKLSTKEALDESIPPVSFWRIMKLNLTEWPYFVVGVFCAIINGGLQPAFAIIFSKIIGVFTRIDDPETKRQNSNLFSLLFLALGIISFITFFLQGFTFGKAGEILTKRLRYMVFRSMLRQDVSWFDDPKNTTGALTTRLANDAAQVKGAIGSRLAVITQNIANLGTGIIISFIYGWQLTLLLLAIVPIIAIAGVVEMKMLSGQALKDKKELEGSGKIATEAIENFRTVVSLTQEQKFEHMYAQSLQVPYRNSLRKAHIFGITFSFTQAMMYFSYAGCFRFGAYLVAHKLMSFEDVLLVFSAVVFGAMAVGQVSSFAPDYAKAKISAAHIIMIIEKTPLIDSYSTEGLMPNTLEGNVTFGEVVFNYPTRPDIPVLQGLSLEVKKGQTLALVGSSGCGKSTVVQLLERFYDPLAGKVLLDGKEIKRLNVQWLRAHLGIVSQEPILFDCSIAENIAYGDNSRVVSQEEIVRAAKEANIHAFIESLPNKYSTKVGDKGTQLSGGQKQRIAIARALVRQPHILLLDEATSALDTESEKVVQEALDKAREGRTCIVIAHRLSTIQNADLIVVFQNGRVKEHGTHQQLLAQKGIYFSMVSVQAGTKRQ
Chain of KRAS G12C (P01116 1-188 isoform P01116-2 G12C): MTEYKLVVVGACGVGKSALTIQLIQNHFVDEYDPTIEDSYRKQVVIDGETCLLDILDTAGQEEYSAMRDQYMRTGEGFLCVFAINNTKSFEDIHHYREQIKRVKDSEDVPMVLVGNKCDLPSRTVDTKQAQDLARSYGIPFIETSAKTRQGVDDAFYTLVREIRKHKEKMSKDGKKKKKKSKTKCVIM

In the case of `[2H]C([2H])=Cc1cccc(F)c1-c1nc2c(cc1Cl)c(N1CCN(C(=O)C=C)C[C@@H]1C)nc(=O)n2-c1c(C)ccnc1C(C)C` [Compound 3-12M], the “anti-cell proliferation activity against KRAS G12C mutant type cells NCI-H358 (in words)” value (NCI-H358 cells; 72 h, CellTiter-Glo) is reported as “significant anti-cell proliferation activity”, the IC50 (NCI-H358 cells; Homo sapiens, NCI-H358, 72 h, 72 h, CellTiter-Glo, test 3, read-out: IC50 value of cell proliferation inhibitory activity of NCI-H358) is reported as less than 50 nM and the “cell proliferation inhibitory activity on NCI-H358 compared with the corresponding compound with axial chiral S configuration (in words)” value (NCI-H358 cells; NCI-H358) is reported as “significantly better”. For the same compound, the “cell proliferation inhibitory activity of R-configuration compound relative to the corresponding axial chiral S-configuration compound” value (NCI-H358 cells; NCI-H358, 3-12M versus 3-12P) was “more than 5 times”, the “cell proliferation inhibitory activity of NCI-H358 compared with AMG510 (in words)” value (NCI-H358 cells; test 8) was “better than AMG510” and the IC50 (NCI-H358 cells; test 8, method of test 3, read-out: IC50 of proliferation inhibitory activity of the compound on NCI-H358 cell line) was 8 nM. For the same compound, the MTD at 5 days ([1]; both sexes, mouse, in vivo, oral gavage, 5 days, initially suggested, read-out: maximum tolerated dose) was greater than 800 mg/kg, the “water and food intake, activity and body weight during the administration period (in words)” value ([1]; oral gavage once a day for 5 days, 200 to 800 mg/kg) was “no significant abnormality was showed” and the “inhibition effect on the growth of subcutaneously transplanted tumors derived from pancreatic cancer MIA paca-2 cells in nude mice (in words)” value ([2]; 10 mg/kg QD×15 days) was “significant inhibition effect”. For the same compound, the “tumor inhibition rate compared with Compound 3-20 (in words)” value ([2]; 10 mg/kg QD×15 days) was “higher than that of Compound 3-20”, the “Tumor inhibition rate (%)” value ([2]; MIA PaCa-2 xenograft, nude mice, 10 mg/kg oral gavage QD×15 days) was “+++ (“+++” represents a tumor inhibition rate of >80%)” and the “inhibitory activity on KRAS G12C enzyme compared with AMG510 (in words)” value (KRAS G12C) was “remarkable better”. For the same compound, the “inhibitory activity on tumor growth in vivo compared with ARS1620 (in words)” value [3] was “significantly better than that of ARS1620” and the “substrate for P-gp (in words)” value [4] was “not a substrate for P-gp”.
